The test system of experiment [1] is ESBL Producing Klebsiella pneumoniae NCTC 13465. In words: Direct inoculation method (Assessment 6a). The experiment is classed as cell-based. Conditions: 250 ppm solution. The protocol:
(§1) Representative colonies from an 18-24 hour challenge culture plate were dispersed in a 500 µl aliquot of maximum recovery diluent (MRD) to obtain an optical density (OD540 nm) equivalent to approximately I×lO^8 CFU/ml. This was diluted to obtain a working concentration of I×lO^7 CFU/ml. A quantitative count was performed to confirm the inoculum level.
(§2) The bacteria tested were Escherichia coli NCIMB 14067, ESBL Producing Klebsiella pneumoniae NCTC 13465, Enterococcus faecalis NCTC 12201, Proteus mirabilis NCTC 9559 and Pseudomonas aeruginosa NCIMB 8626, which each are commonly associated with causing CAUTI.
(§3) 5 pl of the I×lO^7 CFU/ml challenge suspension was added to a 500 pl aliquot of hypochlorous acid solution (250 ppm) (n=3 per challenge organism, per timepoint) and mixed to form a suspension.
(§4) Following 10 seconds, 1 minute and 2 minutes from adding the challenge suspension to the aliquot of hypochlorous acid, samples were taken from the suspension to establish the number of challenge organisms remaining. This was performed by removing 100 pl volumes and transferring to 0.9 ml and 9.9 ml DENB (for 1:10 and 1:100 dilutions respectively). Appropriate serial dilutions were performed and inoculated onto pre-dried Tryptone Soy Agar (TSA) plates to establish the numbers remaining.

Experiment [2] has as its system Enterococcus faecalis NCTC 12201. Nature of the experiment: Direct inoculation method (Assessment 6a). The experiment is classed as cell-based. Conditions: 250 ppm solution. The protocol: as §1, §2, §3, §4
In experiment [3] the test system is Escherichia coli NCIMB 14067. Nature of the experiment: Direct inoculation method (Assessment 6a). The experiment is classed as cell-based. Conditions: 250 ppm solution. The protocol:
as §1, §2, §3, §4

For experiment [4], the system named is Proteus mirabilis NCTC 9559. Nature of the experiment: Direct inoculation method (Assessment 6a). In kind it is cell-based. To be noted: 250 ppm solution. The protocol:
as §1, §2, §3, §4

The test system of experiment [5] is Pseudomonas aeruginosa NCIMB 8626. Nature of the experiment: Direct inoculation method (Assessment 6a). In kind it is cell-based. To be noted: 250 ppm solution. As for the experimental part:
as §1, §2, §3, §4

Experiment [6] deals with Escherichia coli NCIMB 14067. In words: Antimicrobial activity along the catheter method (Assessment 6b). In kind it is cell-based. Conditions: concentration 300 ppm or above; each section of GentleCath Air 2.0 CH14 catheter; two minutes. As for the experimental part:
Representative colonies from an 18-24 hour challenge culture plate were dispersed in maximum recovery diluent (MRD) to obtain an optical density (OD540 nm) equivalent to approximately I×lO^8 CFU/ml. This was diluted to obtain a working concentration of I×lO^4 CFU/ml. A quantitative count was performed to confirm the inoculum level.
The bacteria tested were Escherichia coli NCIMB 14067 which are bacteria that are commonly associated with causing CAUTI.
GentleCath Air 2.0 CH14 (manufactured by ConvaTec Inc.) intermittent urinary catheters were used for the assessment. Each catheter was prepared within a laminar flow cabinet to maintain sterility. In the assessment, each catheter was hydrated with a 100, 150, 200, 300, 675 or 1000 ppm hypochlorous acid solution. A further catheter was hydrated with sterile deionised water (SDW) and was used as a control.
Enough samples were prepared for n=3 and controls for n=1 per challenge organism.
Each catheter was hydrated with a hypochlorous solution as described above, as per the IFU, and removed from its packaging.
Each catheter was cut into three sections, each section having a length of 2.5 cm, beginning at the tip of the catheter (section 1) and ending proximal to the handle of the catheter (section 3). […]

The subject of experiment [7] is E. coli NCIMB 14067. In words: Antimicrobial residual test (Assessment 6c). The experiment is classed as cell-based, Escherichia coli. Conditions: for Antimicrobial residual test result (growth of challenge organism): 40 µl on sterile filter. As for the experimental part:
(§5) Representative colonies from an 18-24 hour challenge culture plate were dispersed in maximum recovery diluent (MRD) to obtain an optical density (OD540 nm) equivalent to approximately I×lO^8 CFU/ml. This was diluted to obtain a working concentration of I×lO^6 CFU/ml. A quantitative count was performed to confirm the inoculum level. The bacteria tested were Escherichia coli NCIMB 14067, Enterococcus faecalis NCTC 12201, which each are commonly associated with causing CAUTI. 40 pl of a hypochlorous acid solution (250 ppm), representative of the amount of hypochlorous acid that is left on a catheter following hydration, was placed onto sterile filters. A 40 pl volume of maximum recovery diluent (MRD) was placed onto a further sterile filter as a negative control. A 40 pl volume of approximate 2% […] was placed onto a further sterile filter as a positive control. The filters used were Grade 427 mm Whatman Filters. Following timepoints of 0 minutes, 30 minutes and 4 hours from adding the hypochlorous acid solutions and control to respective sterile filters, each sterile filter was then inoculated with lOpl of IxlO^6 CFU/ml challenge suspension of bacteria, prepared as described above, and left undisturbed for two minutes (to represent approximate urination time). Following the two minutes, the filters were homogenised in Dey-Engley Neutralising Broth (DENB) and appropriate serial dilutions were performed and inoculated onto pre-dried Tryptone Soy Agar (TSA) plates to establish the bacteria numbers remaining.

A further experiment concerns E. faecalis NCTC 12201. In words: Antimicrobial residual test (Assessment 6c). Conditions: for Antimicrobial residual test result (growth of challenge organism): 40 µl on sterile filter. The experiment is classed as cell-based, Enterococcus faecalis. As for the experimental part:
as §5

For experiment [8], the system named is E. coli NCIMB 14067. In words: Antimicrobial efficacy of very low hypochlorous acid concentrations, suspension test (Further Assessment 2). To be noted: for bacterial recovery: 10 ppm solution; for numbers of bacteria recovered: after 30 seconds. The experiment is classed as cell-based, Escherichia coli. The protocol:
The antimicrobial efficacy of hypochlorous acid was tested at even lower concentrations (10, 25, and 50 ppm) against the challenging organism E. coli NCIMB 14067. The representative colonies of E. coli NCIMB 14067 were dispersed in maximum recovery diluent (MRD) to obtain an optical density (OD540 nm) equivalent to approximately […]. A quantitative plate count was performed on this suspension to determine the total number of viable organisms inoculated. A new suspension was prepared for each concentration tested. A 1000 ppm hypochlorous acid solution was diluted in sterile deionised water to provide the respective 10, 25 and 50 ppm hypochlorous acid solutions. The hypochlorous acid samples were aliquoted into 9 mL volumes and 1 mL of the challenge organism suspension was added and mixed (the final number of bacteria present is now approximately 1×10^6 CFU/mL). Following 5, 30 seconds, 1, 2, and 5 minutes, 100 pL volumes were sampled and transferred to 0.9 mL and 9.9 mL of Dey-Engley Neutralising Broth (DENB) (to provide a 1:10 and 1:100 dilution respectively), and total viable counts were performed to establish the amount present. The plates were left to dry before being inverted and incubated at 35+3° C. for at least 48 hours. A negative control was also tested whereby 1 mL of the challenge organism suspension was added to 9 mL of MRD and tested as previously described. Following the incubation period, the number of CFUs were counted on the most appropriate dilution for each sample i.e. between 25-250 CFU/plate.

Experiment [9] has as its system Enterococcus faecalis NCTC 12201. In words: In vitro direct inoculation method, sulfanilamide comparison (Further Assessment 3). In kind it is cell-based. The protocol: (§6) An in vitro direct inoculation method was used to assess the antimicrobial activity of sulfanilamide in an intermittent urinary catheter scenario against […] Escherichia coli NCIMB 14067 and […] Enterococcus faecalis NCTC 12201; two microorganisms associated with urinary tract infections. Sulfanilamide concentrations of 0.1% and 0.01% were tested and bacterial levels monitored over a period of 5 minutes. Representative colonies of the challenge microorganisms, from an 18-24 hour challenge culture plate, were dispersed in MRD to obtain an optical density (OD540 nm) equivalent to approximately 1×10^8 CFU/mL. This was diluted to obtain a working concentration of 1×10^6 CFU/mL. A quantitative count was performed to confirm the inoculum level. The challenge organism was prepared in MRD to a concentration of approximately 1×10^6 CFU/mL. This suspension was added in a 1 mL volume to 9 mL of sample (n=3 per sample, n=2 per control) in a sterile 30 mL universal and pipetted up and down to mix. Following each testing period, 5 seconds, 30 seconds, 1 minute, 2 minutes and 5 minutes, 100 μL of the test solution was transferred to 0.9 mL and 9.9 mL volumes of DENB (1:10 and 1:100 dilutions, respectively). The most appropriate dilutions were inoculated (100 pL) onto duplicate pre-dried (tryptone soy agar) TSA plates and the inoculum spread using separate sterile L-shaped spreaders (for 10-1 and 10-2 dilutions, 0.5 mL were placed onto duplicate plates). The TSA plates were allowed to dry before being inverted and incubated at 35±3° C. for at least 48 hours. Following the incubation period, the number of bacterial colonies were counted on the most appropriate dilution for each dressing type i.e. between 25-250 CFU/plate. The samples tested were: 0.1% sulfanilamide in sterile deionised water (SDW); 0.01% sulfanilamide in SDW; 100 ppm hypochlorous acid in SDW; and a SDW control.

Experiment [10] deals with Escherichia coli NCIMB 14067. The experiment is described as above. In kind it is cell-based. The protocol: as §6
The mark [11] stands for this setting: inoculated at 0 hour (plus 2 minutes).
Where [12] appears, read: inoculated at 30 minutes (plus 2 minutes).
Setting [13] is: inoculated at 4 hours (plus 2 minutes).
Where [14] appears, read: 250 ppm solution on sterile filter.
[15] abbreviates: 100 ppm in SDW, within 5 seconds and for the remaining testing period (to 5 minutes).
[16] abbreviates: 0.1% and 0.01% in SDW, any timepoint from 5 seconds to 5 minutes.

Bounds are passed on as bounds.

`OCl` [hypochlorous acid]: the “Bacterial numbers reduced to the detection limit (>5 log reduction)” value in experiment [1] (10 seconds), in experiment [1] (1 minute), in [1] (2 minutes), in [2] (10 seconds), in [2] (1 minute) and in experiment [2] (2 minutes) was “Yes” throughout. Moreover, the “Bacterial numbers reduced to the detection limit (>5 log reduction)” value in experiment [3] (10 seconds), in [3] (1 minute), in experiment [3] (2 minutes), in experiment [4] (10 seconds), in experiment [4] (1 minute) and in experiment [4] (2 minutes) was “Yes” each time. Also, the “Bacterial numbers reduced to the detection limit (>5 log reduction)” value in experiment [5] (10 seconds), in [5] (1 minute) and in [5] (2 minutes) was “Yes” throughout. Also, in experiment [6], the bacterial cell death result is on record as “greater than 93%”. Also, the “Antimicrobial residual test result (growth of challenge organism)” value in the experiment on E. coli NCIMB 14067 [7] (setting [11]) is on record as “No growth”; in the experiment on E. coli NCIMB 14067 [7] (setting [12]) it was “Growth”; with E. coli NCIMB 14067 [7] (setting [13]), “Growth”; in the experiment with E. faecalis NCTC 12201 (setting [11]) it was “No growth”; in the experiment with E. faecalis NCTC 12201 (setting [12]), “Growth”; in the experiment on E. faecalis NCTC 12201 (setting [13]), “Growth”. The “time by which antimicrobial activity was exhausted” value in the experiment on E. coli NCIMB 14067 [7] (setting [14]) and in the experiment on E. faecalis NCTC 12201 (setting [14]) was at most 30 min in each case. The values for the bacterial recovery entry in the experiment with E. coli NCIMB 14067 [8] (1 minute timepoint) and with E. coli NCIMB 14067 [8] (at 30 seconds) were “undetectable levels” and “over 10 CFU/mL”, respectively. The “numbers of bacteria recovered” value in the experiment on E. coli NCIMB 14067 [8] (25 ppm solution) and with E. coli NCIMB 14067 [8] (50 ppm solution) was “undetectable numbers of bacteria” each time. Also, the challenge organism numbers entry in experiment [9] (setting [15]) and in experiment [10] (setting [15]) was “undetectable numbers” in each case.
In the case of `Nc1ccc(S(N)(=O)=O)cc1` [sulfanilamide, reference compound], the “challenge organism numbers compared to the control” value in experiment [9] (setting [16]) and in experiment [10] (setting [16]) was “no decrease in challenge organism numbers” each time.

For the origin of these results see US20260131107A1, “CATHETERS” (ConvaTec Limited, priority 2023, published 2026).
